Laboratory results: paper PMC6209510 (European journal of medicinal chemistry, 2017)

Test system: P. falciparum W2
Assay: not given
Format: cell-based
Conditions: Plasmodium falciparum, W2, 48 h, read-out: P. falciparum W2 IC50
CCN(CC)CCCC(C)Nc1ccnc2cc(Cl)ccc12 (stereo not drawn) [CQ, Chloroquine, reference compound] gave an IC50 of 0.422 µM.

Test system: P. falciparum D6
Assay: not given
Format: cell-based, Plasmodium falciparum
Conditions: Plasmodium falciparum, D6, 48 h, read-out: P. falciparum D6 IC50
With CCN(CC)CCCC(C)Nc1ccnc2cc(Cl)ccc12 (stereo not drawn) [CQ, Chloroquine, reference compound] the IC50 was 0.083 µM.

Same assay, conditions: Vero cells vs P. falciparum D6
With COc1cc(CNCCCCNCc2ccc(OCc3ccccc3)c(OC)c2)ccc1OCc1ccccc1 [Compound 26, N1,N4-bis(4-(benzyloxy)-3-methoxybenzyl) butane-1,4-diamine] the “SI (Selectivity Index: IC50 Vero Cells/IC50 Parasites), P. falciparum D6” value was over 27.4.
For COc1cc(CNCCCCCCNCc2ccc(OCc3ccccc3)c(OC)c2)ccc1OCc1ccccc1 [Compound 27, N1,N6-bis(4-(benzyloxy)-3-methoxybenzyl) hexane-1,6-diamine], the “SI (Selectivity Index: IC50 Vero Cells/IC50 Parasites), P. falciparum D6” value was over 31.7.

Test system: Vero cells
Assay: Cytotoxicity assay on Vero cells
Format: cell-based, African green monkey
Conditions: 48 h; tested at a maximum concentration of 8 μM; NC = not cytotoxic
With “N1,N1,N10,N10-tetrakis(4-methoxybenzyl) decane-1,10 diamine [Compound 40]” the “Cytotoxicity Vero cells IC50” value was “NC (not cytotoxic at the maximum concentration tested (4.46 μg/mL))”.

Test system: not listed separately
Assay: Cytotoxicity assay on Vero cells
Format: cell-based, African green monkey
Conditions: African green monkey, Vero cells (mammalian kidney fibroblasts)
For COc1ccc(CNCCCCNCc2ccc(OC)c(O)c2)cc1O [Compound 20, 5,5’-((butane-1,4-diylbis(azanediyl))bis(methylene))bis(2-methoxyphenol)], the IC50 at 48 h was over 4.76 µg/mL.
For COc1cc(CNCCCCNCc2ccc(OCc3ccccc3)c(OC)c2)ccc1OCc1ccccc1 [Compound 26, N1,N4-bis(4-(benzyloxy)-3-methoxybenzyl) butane-1,4-diamine], the IC50 at 48 h was over 4.76 µg/mL.
COc1cc(CNCCCNCc2ccc(OCc3ccccc3)c(OC)c2)ccc1OCc1ccccc1 [Compound 25, N1,N3-bis(4-(benzyloxy)-3-methoxybenzyl) propane-1,3-diamine] showed an IC50 at 48 h of 6.65 µM.
With COc1ccc(CNCCCCCCCCCCNCc2ccc(OC)cc2)cc1 [Compound 11, N1,N10-bis(4-methoxybenzyl)decane-1,10-diamine] the IC50 at 48 h was over 4.76 µg/mL.
COc1ccc(CNCCCCCCCCCCNCc2ccc(OC)c(O)c2)cc1O [Compound 23, 5,5’-((decane-1,10-diylbis(azanediyl))bis(methylene)) bis(2-methoxyphenol)] showed an IC50 at 48 h of over 4.76 µg/mL.
For COc1ccc(CNCCCCCCCCCCCCNCc2ccc(OC)c(O)c2)cc1O [Compound 24, 5,5’-((dodecane-1,12-diylbis(azanediyl))bis(methylene))bis(2-methoxyphenol)], the IC50 at 48 h was over 4.76 µg/mL.
Compound COc1cc(CNCCCCCCCCCCCCNCc2ccc(OCc3ccccc3)c(OC)c2)ccc1OCc1ccccc1 [Compound 30, N1,N12-bis(4-(benzyloxy)-3-methoxybenzyl) dodecane-1,12-diamine] has an IC50 at 48 h of over 4.76 µg/mL.
Work on COc1ccc(CNCCCNCc2ccc(OC)c(O)c2)cc1O [Compound 19, 5,5’-((propane-1,3-diylbis(azanediyl))bis(methylene))bis(2-methoxyphenol)] yielded an IC50 at 48 h of over 4.76 µg/mL.
COc1cc(CNCCCCCCCCCCNCc2ccc(OCc3ccccc3)c(OC)c2)ccc1OCc1ccccc1 [Compound 29, N1,N10-bis(4-(benzyloxy)-3-methoxybenzyl) decane-1,10-diamine] showed an IC50 at 48 h of over 4.76 µg/mL.
For COc1ccc(CNCCCCCCNCc2ccc(OC)cc2)cc1 [Compound 9, N1,N6-bis(4-methoxybenzyl)hexane-1,6-diamine], the IC50 at 48 h was 8.32 µM.
Compound COc1ccc(CNCCCCCCCCNCc2ccc(OC)cc2)cc1 [Compound 10, N1,N8-bis(4-methoxybenzyl)octane-1,8-diamine] has an IC50 at 48 h of over 4.76 µg/mL.
COc1cc(CNCCCCCCNCc2ccc(OCc3ccccc3)c(OC)c2)ccc1OCc1ccccc1 [Compound 27, N1,N6-bis(4-(benzyloxy)-3-methoxybenzyl) hexane-1,6-diamine] gave an IC50 at 48 h of over 4.76 µg/mL.
With c1ccc(CNCCCNCc2ccccc2)cc1 [Compound 1, N1,N3-dibenzylpropane-1,3-diamine] the IC50 at 48 h was over 4.76 µg/mL.
COc1ccc(CNCCCNCc2ccc(OC)cc2)cc1 [Compound 7, N1,N3-bis(4-methoxybenzyl)propane-1,3-diamine] gave an IC50 at 48 h of over 4.76 µg/mL.
COc1ccc(CNCCCCCCCCCCCCNCc2ccc(OC)cc2)cc1 [Compound 12, N1,N12-bis(4-methoxybenzyl)dodecane-1,12-diamine] gave an IC50 at 48 h of over 4.76 µg/mL.
For COc1ccc(CNCCCCCCNCc2ccc(OC)c(O)c2)cc1O [Compound 21, 5,5’-((hexane-1,6-diylbis(azanediyl))bis(methylene))bis(2-methoxyphenol)], the IC50 at 48 h was over 4.76 µg/mL.
Work on COc1ccc(CNCCCCCCCCNCc2ccc(OC)c(O)c2)cc1O [Compound 22, 5,5’-((octane-1,8-diylbis(azanediyl))bis(methylene))bis(2-methoxyphenol)] yielded an IC50 at 48 h of over 4.76 µg/mL.
Work on COc1ccc(CNCCCCNCc2ccc(OC)cc2)cc1 [Compound 8, N1,N4-bis(4-methoxybenzyl)butane-1,4-diamine] yielded an IC50 at 48 h of over 4.76 µg/mL.

Test system: human foreskin fibroblast (HFF)
Assay: Cytotoxicity on fibroblast
Format: cell-based
Conditions: no cytotoxicity at 10 μM
Work on COc1cc(CNCCCNCc2ccc(OCc3ccccc3)c(OC)c2)ccc1OCc1ccccc1 [Compound 25, N1,N3-bis(4-(benzyloxy)-3-methoxybenzyl) propane-1,3-diamine] yielded a cytotoxicity on fibroblast of over 10 µM.
